# Patent US5098916A, “Propanobicyclic amine derivatives for CNS disorders” (G. D. Searle & Co., priority 1990, dated 1992)
# Molecular target: sigma receptor
# Experiment: Radioreceptor assay: sigma receptor, displacement of [^3 H]-3-(+)-PPP
# Type: binding, male Sprague-Dawley rats
# Details: units ± SEM; rat brain crude membranes; 2 nM [^3 H]-(+)-3-PPP; 1 hr incubation at room temperature; pH 7.4; read-out: Ki apparent
# Experimental: To determine the effects of the compounds in a sigma receptor assay, crude membrane preparations were prepared as follows. Brains from male Sprague-Dawley rats were homogenized in 10 volumes (wt/vol) of 0.32M sucrose, using a Polytron grinder. The homogenate was centrifuged at 900×G for 10 minutes at 4° C. The supernatant was collected and centrifuged at 22,000×g for 20 minutes at 4° C. The pellet was resuspended in 10 volumes of 50 mM Tris/HCl buffer (pH 7.4) and centrifuged at 22,000×g for 20 minutes at 4° C. The pellet was resuspended in 5 mM Tris/HCl buffer (pH 7.4) to give a final concentration of 250 mg/ml of the crude material. Incubation tubes were prepared in triplicate and contained 0.1 ml of tissue suspension, 2 nM of [^3 H]-(+)-1-propyl-3-(3-hydroxyphenyl)piperidine [^3 H]-3-(+)-PPP, and varying concentrations of the displacing ligand (0.1-1,000 nM) in a final volume of 0.5 ml. After a 1 hr incubation at room temperature, the contents of the test tubes were filtered through GS filter paper which had been presoaked for at least 2 hours in 0.05% polyethyleneimine. The test tubes were rinsed three times with Tris/HCl buffer. Radioactivity on the filters was determined using liquid scintillation spectrometry and inhibition curves were calculated according to the method of Cheng and Prusoff [Biochem. Pharmacol., 22, 3099-3108 (1973)].
row,Compound,Ki
1,"c1ccc2c(c1)C1CCC2C(N2CCCCC2)CC1 (stereo not drawn) [Compound No. 1, exo- and endo-1-(2-Benzobicyclo[3.2.2]nonenyl)piperidine]",0.006 ± 0.001 µM
2,"c1ccc2c(c1)C1CCC2C(N2CCCCC2)CC1 (stereo not drawn) [Compound No. 2, exo-1-(2-Benzobicyclo[3.2.2]nonenyl)piperidine]",0.01 ± 0.002 µM
3,"c1ccc2c(c1)C1CCC2C(N2CCCCC2)CC1 (stereo not drawn) [Compound No. 3, endo-1-(2-Benzobicyclo[3.2.2]nonenyl)piperidine]",0.15 ± 0.02 µM
4,"OCCN1CCN(C2CCC3CCC2c2ccccc23)CC1 (stereo not drawn) [Compound No. 4, endo- and exo-1-(2-Benzobicyclo[3.2.2]nonenyl)-4-(2-hydroxyethyl)piperazine]",0.305 ± 0.02 µM
5,CN1CCN(C2CCC3CCC2c2ccccc23)CC1 (stereo not drawn) [Compound No. 5],16 ± 4 µM

# System: not listed separately
# Experiment: Blockade of agonist (N-allylnormetazocine)-induced stereotyped behavior and ataxia
# Type: in vivo
# Details: 1 mg/kg i.p. test compound; 15 mg/kg i.p. N-allylnormetazocine
# Experimental: Compounds of the invention were evaluated for their ability to block the effects of N-allylnormetazocine on the induction of stereotyped behavior and ataxia. To test for antagonism, drugs are administered at varying times before i.p. administration of 15 mg/kg of N-allylnormetazocine. Behavioral and ataxia ratings are taken at 2.5 minutes, 5 minutes, and every 5 minutes thereafter until the animal returns to control behavior. […] The lowest dose of the test compound which is capable of blocking the stereotyped behavior and ataxia induced by N-allylnormetazocine was determined.
row,Compound,block of N-allylnormetazocine-induced stereotyped behavior
1,"c1ccc2c(c1)C1CCC2C(N2CCCCC2)CC1 (stereo not drawn) [Compound No. 1, exo- and endo-1-(2-Benzobicyclo[3.2.2]nonenyl)piperidine]",fully blocked
